# Reference: publication PMC13086964, “USP7 deubiquitinase stabilizes FAN1 to support DNA crosslink repair and suppress CAG repeat expansion” (Nature Communications, 2026)
# Where no end group is shown, it is not given here. The star is where a group is joined. FITC = O=C1OC2(c3ccc(O)cc3Oc3cc(O)ccc32)c2ccc(NC(=S)*)cc21; Biotin = O=C1N[C@H]2[C@H](CS[C@H]2CCCCC(=O)*)N1; Ahx = NCCCCCC(=O)O
# How the values were obtained:
# [1] = tested on: USP7; experiment: streptavidin pulldown of biotinylated FAN1 peptides with recombinant His-USP7; assay type: binding, human; conditions: 10 µg peptide on Strep-Tactin XT 4Flow resin, 0.5 µg recombinant USP7, 2 h at 4 °C, immunoblot; for USP7 binding of biotinylated FAN1 UBL peptide: 13mer UBL peptides; for USP7 binding of biotinylated FAN1 peptide: 12mer TRAF peptides, repeated three times
# Procedure: (§1) Fig. 2 FAN1 associates with the TRAF-like and UBL domains of USP7. A Top: schematic representation of the human USP7 protein indicating point mutants. TRAF tumour necrosis factor receptor associated factor (orange), CD catalytic domain (cyan), UBL ubiquitin-like (yellow to brown). Bottom: HEK293^eGFP-FAN1 cells were transfected with either e.v. or the indicated FLAG-USP7 expression constructs. 24 h later, GFP-FAN1 expression was induced with Dox (100 ng/ml). 48 h post induction, cells were lysed and whole-cell extracts were subjected to IP using anti-FLAG M2 affinity resin. Inputs and recovered protein complexes were analysed by immunoblotting. Asterisk indicates IgG heavy chain from anti-FLAG M2 affinity resin. B Sequences of the biotinylated 12-mer FAN1-derived TRAF peptides. The corresponding amino acids are indicated. Key residues are highlighted in bold. B, C Biotinylated FAN1 TRAF peptides (10 µg) were immobilized on Strep-Tactin®XT-4Flow® resin and incubated with recombinant purified His-USP7. Inputs and recovered His-USP7 were analysed by immunoblotting. D Fluorescence polarization (FP) binding curves of FITC-labelled FAN1-derived 8mer peptides: wild-type (wt; black circle), P181A (green triangle), Q182A (orange diamond), S184A (red square). The corresponding amino acids are indicated. Key residues are highlighted in bold. FP was measured as a function of USP7-TRAF (aa 2–207) concentration. FP values were normalized by expressing the millipolarization (mP) of each sample relative to the corresponding wild-type peptide. Background signal was corrected by subtracting baseline FP measured in the absence of USP7-TRAF. Data are presented as the means ± SD of three biological replicates (n = 3). E Top: schematic representation of the human USP7 protein indicating truncation mutants. TRAF tumour necrosis factor receptor associated factor, CD catalytic domain, UBL ubiquitin-like. HEK293^eGFP-FAN1 cells were transfected with either e.v. or the indicated FLAG-USP7 expression constructs. 24 h later, GFP-FAN1 expression was induced with Dox (100 ng/ml). 48 h post induction, cells were lysed and whole-cell extracts were subjected to IP using anti-FLAG M2 affinity resin. Inputs and recovered protein complexes were analysed by immunoblotting. Asterisk indicates IgG heavy chain from anti-FLAG M2 affinity resin. The experiments in (A–C, E) were repeated three independent times.
# For peptide pull-down assays, biotinylated FAN1 peptides were incubated with Strep-Tactin® XT 4Flow® resin (IBA LifeScience) at room temperature for 30 minutes and washed four times with 0.1% Triton-PBS and two times with HNE buffer (20 mM HEPES pH 7.5, 0.2 mM EDTA, 0.5% NP-40, 150 mM NaCl, 0.5 mM DTT, 0.1% BSA, 0.5 mM PMSF). […] Beads were then washed three times with HNE buffer, once with TEN300 (20 mM Tris-HCl pH 7.4, 0.1 mM EDTA and 300 mM NaCl) and once with TEN100 buffer. Complexes were boiled in SDS sample buffer and analysed by SDS–PAGE followed by immunoblotting.
# Figure S3 (Related to Figure 2). USP7 contacts FAN1 via its UBL domain. […]
# Inputs and recovered MBP-His-FAN1 were analysed by immunoblotting. (C) Sequences of the biotinylated 13-mer FAN1-derived UBL peptides. The corresponding amino acids are indicated. Key residues are highlighted in bold. (C and D) Biotinylated FAN1 UBL peptides (10 µg) were immobilized on Strep-Tactin® XT 4Flow® resin and incubated with recombinant purified His-USP7. Inputs and recovered His-USP7 were analysed by immunoblotting. […]
# The experiments in (A-E) were repeated three independent times.
# [2] = tested on: FAN1-USP7; experiment: GFP-Trap co-IP after UAE inhibition, FAN1-USP7 binding; assay type: cell-based, human; conditions: HEK293T cells, 10 μM for 2 h
# Procedure: Cells were lysed in NP-40 buffer [50 mM tris-HCl (pH 7.5), 120 mM NaCl, 1 mM EDTA, 6 mM EGTA, 15 mM sodium pyrophosphate, and 1% NP-40, supplemented with phosphatase inhibitors (20 mM NaF and 1 mM Na3VO4) and protease inhibitors (1 mM benzamidine, 0.1 mM PMSF and cOmplete™ Protease Inhibitor Cocktail)], incubated with Benzonase (Merck) for at least 30 min at 4 °C, and clarified by centrifugation. Between 1 and 3 mg of lysates were incubated with anti-FLAG M2 (Sigma-Aldrich) or ChromoTek GFP-Trap® Agarose resin (Proteintech) for 2 h or overnight at 4 °C. The beads were then washed three times with NP-40 buffer and once with TEN100 buffer. Retrieved protein complexes were boiled in SDS sample buffer and analysed by SDS-PAGE followed by immunoblotting.
# (§2) Figure S1 (related to Figure 1). […]
# ubiquitin. (A) HEK293eGFP-FAN1 cells were transfected either with non-targeting (Ctrl) or the indicated siRNA oligos. 24 h later, GFP-FAN1 expression was induced with Dox (100 ng/ml). 24 h post induction, cells were lysed and whole-cell extracts were subjected to GFP-Trap resin. Inputs and recovered protein complexes were analysed by immunoblotting. (B) HEK293 cells were transfected with either e.v. or GFP-FAN1-wt expressing constructs. […] Inputs and recovered protein complexes were analysed by immunoblotting. […] Inputs and recovered protein complexes were analysed by immunoblotting. […]
# [3] = tested on: cellular ubiquitin conjugates; experiment: cellular ubiquitin conjugates after UAE inhibition; assay type: cell-based; conditions: HEK293T cells, 10 μM for 2 h
# Procedure: as §2
# ubiquitin. (A) HEK293eGFP-FAN1 cells were transfected either with non-targeting (Ctrl) or the indicated siRNA oligos. 24 h later, GFP-FAN1 expression was induced with Dox (100 ng/ml). 24 h post induction, cells were lysed and whole-cell extracts were subjected to GFP-Trap resin. Inputs and recovered protein complexes were analysed by immunoblotting. (B) HEK293 cells were transfected with either e.v. or GFP-FAN1-wt expressing constructs. 48 h later, cells were lysed and whole-cell extracts were incubated with a FAN1-derived 60-mer peptide (aa 118 to 177) for 2 h and subjected to GFP-Trap resin. Inputs and recovered protein complexes were analysed by immunoblotting. (C) HEK293T cells were transfected with either e.v. or GFP-FAN1-wt expressing constructs. 48 h later, cells were either mock-treated (-) or treated (+) with TAK-243 (10 μM) for 2 h, lysed and whole-cell extracts were subjected to GFP-Trap resin. Inputs and recovered protein complexes were analysed by immunoblotting. The experiments in (A-C) were repeated three independent times.
# (1 picture or pasted object on this page, not shown here)
# [4] = tested on: USP7 TRAF (aa 2-207); experiment: fluorescence polarization assay, FITC-labelled FAN1-derived peptides; assay type: binding, human; conditions: 8mer FITC-labelled peptides; 20 mM HEPES pH 7.4, 50 mM KCl, 1 mM TCEP, 0.005% Tween-20, 0.2% DMSO; USP7 TRAF 14-point 2-fold from 200 µM; 1 µL of 200 nM peptide added to 19 µL; n = 3
# Procedure: as §1, with “Data are presented as the means ± SD of three biological replicates (n = 3). E Top: schematic representation of the human USP7 protein indicating truncation mutants. TRAF tumour necrosis factor receptor associated factor, CD catalytic domain, UBL ubiquitin-like. HEK293^eGFP-FAN1 cells were transfected with either e.v. or the indicated FLAG-USP7 expression constructs. 24 h later, GFP-FAN1 expression was induced with Dox (100 ng/ml). 48 h post induction, cells were lysed and whole-cell extracts were subjected to IP using anti-FLAG M2 affinity resin.” left out, “Asterisk indicates IgG heavy chain from anti-FLAG M2 affinity resin. The experiments in (A–C, E) were repeated three independent times.” left out
# USP7 TRAF (aa 2-207) was serially diluted (14-point, 2-fold) in assay buffer (20 mM HEPES (pH 7.4), 50 mM KCl, 1 mM TCEP, 0.005% Tween-20 (v/v), 0.2% DMSO (v/v)) from a top concentration of 200 µM. […] Fluorescence polarization (mP, millipolarization units) was measured using Agilent BioTek Synergy H1 with excitation 485 nm, emission 528 nm, gain 80, in a kinetic read (6 measurements in 30 min). […]
compound,measurement,setting,value
"Biotin-SLASKLSRKYVKA-NH2 [UBL2 (12mer), biotinylated FAN1-derived 13mer UBL peptide with 158-KLSRK-162]",USP7 binding of biotinylated FAN1 UBL peptide,[1],exhibited detectable USP7 binding
NS(=O)(=O)OC[C@H]1C[C@@H](Nc2ccnc3cc(-c4cccc(SC(F)(F)F)c4)nn23)[C@H](O)[C@@H]1O [TAK-243],FAN1-USP7 binding,[2],did not impact FAN1-USP7 binding
same,cellular ubiquitin conjugates,[3],depletion of cellular ubiquitin conjugates
"{FITC-Ahx}-SSAQSSKS [TRAF3 P181A (8mer), FITC-labelled FAN1-derived 8mer peptide, P181A]",binding to the USP7 TRAF domain (FP),[4],did not abolish the interaction
"Biotin-AGSSPQSAKSTV-NH2 [TRAF3 S184A (12mer), biotinylated 12mer FAN1 peptide, S184A]",USP7 binding of biotinylated FAN1 peptide,[1]; listed as S184A ‘TRAF3’ mutant peptide,failed to bind
same,USP7 binding of biotinylated FAN1 peptide,[1]; listed as serine residue 184 to alanine (S184A),abrogated USP7 binding
"Biotin-SLASALSRAYVKA-NH2 [UBL2 2KA (12mer), FAN1 UBL2 K158A/K162A (2KA) 13mer peptide]",USP7 binding of biotinylated FAN1 UBL peptide,[1],did not abolish USP7 association
same,USP7 binding of biotinylated FAN1 UBL peptide,[1]; listed as K158A/K162A ‘UBL2’ mutant peptide,no reduction in USP7 binding
"Biotin-PLEQGSSCNGPG-NH2 [TRAF4 (12mer), biotinylated 12mer FAN1 peptide containing the 358-EQGS-361 motif]",USP7 binding of biotinylated FAN1 peptide,[1],weak USP7 binding
"{FITC-Ahx}-SSPQSAKS [TRAF3 S184A (8mer), FITC-labelled FAN1-derived 8mer peptide, S184A]",binding to the USP7 TRAF domain (FP),[4],markedly impaired binding
"{FITC-Ahx}-SSPQSSKS [TRAF3 (8mer), FITC-labelled FAN1-derived 8mer peptide, wild-type]",binding to the USP7 TRAF domain (FP),[4],bound efficiently to the USP7 TRAF domain
